Reference: PubChem BioAssay (NCI)
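The compound was tested at five concentrations on cells cultured in 96-well plates, with a 48-hour exposure period. GI50 = concentration required for 50% inhibition of growth. TGI marks complete inhibition of growth.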

What was measured:
Test in all cases: NCI anticancer screen, dose series, 48 h
[1] = system: SF-295 CNS
[2] = system: HCT-15 colon
[3] = system: UO-31 renal
[4] = system: COLO 205 colon
[5] = system: IGROV1 ovarian
[6] = system: HL-60(TB) leukemia
[7] = system: T-47D breast
[8] = system: SNB-75 CNS
[9] = system: EKVX NSCLC
[10] = system: OVCAR-3 ovarian
[11] = system: SK-MEL-28 melanoma
[12] = system: NCI/ADR-RES ovarian
[13] = system: HCC-2998 colon
[14] = system: CAKI-1 renal
[15] = system: HOP-92 NSCLC
[16] = system: SF-539 CNS
[17] = system: RXF 393 renal
[18] = system: RPMI-8226 leukemia
[19] = system: SK-OV-3 ovarian
[20] = system: MDA-MB-231 breast
[21] = system: HCT-116 colon
[22] = system: SK-MEL-2 melanoma
[23] = system: MCF7 breast
[24] = system: SNB-19 CNS
[25] = system: HOP-62 NSCLC
[26] = system: OVCAR-8 ovarian
[27] = system: NCI-H460 lung
[28] = system: BT-549 breast
[29] = system: SF-268 CNS
[30] = system: ACHN renal
[31] = system: SN12C renal
[32] = system: KM12 colon
[33] = system: CCRF-CEM leukemia
[34] = system: U251 CNS
[35] = system: DU-145 prostate
[36] = system: MALME-3M melanoma
[37] = system: UACC-257 melanoma
[38] = system: MOLT-4 leukemia
[39] = system: 786-0 renal
[40] = system: HS 578T breast
[41] = system: TK-10 renal
[42] = system: A549 NSCLC
[43] = system: SK-MEL-5 melanoma
[44] = system: NCI-H522 lung
[45] = system: SR leukemia
[46] = system: A498 renal
[47] = system: OVCAR-4 ovarian
[48] = system: M14 melanoma
[49] = system: NCI-H23 lung
[50] = system: OVCAR-5 ovarian
[51] = system: SW-620 colon
[52] = system: MDA-MB-435
[53] = system: HT29 colon
[54] = system: LOX IMVI melanoma
[55] = system: K-562 leukemia
[56] = system: NCI-H226 lung
[57] = system: PC-3 prostate
[58] = system: UACC-62 melanoma

Question: Which GI50 [1] does the source give for `CC(C)(C)Cn1c(N)nc2ccc(-c3[nH]c(C(C)(C)C)nc3-c3ccc(F)cc3)nc21` here?
Answer: 7.82 µM

Question: And the TGI [1]?
Answer: 22 µM

Question: And the GI50 [2]?
Answer: 4.9 µM

Question: And the TGI [2]?
Answer: 30.4 µM

Question: What about the GI50 [3] of the same molecule?
Answer: 0.406 µM

Question: What about the TGI [3] of the same molecule?
Answer: 15.1 µM

Question: And the GI50 [4]?
Answer: 7.76 µM

Question: What about the TGI [4] of the same molecule?
Answer: 21.7 µM

Question: And the GI50 [5]?
Answer: 2.66 µM

Question: And the TGI [5]?
Answer: 16.4 µM

Question: And the GI50 [6]?
Answer: 19.9 µM

Question: And the TGI [6]?
Answer: 81.4 µM

Question: And the GI50 [7]?
Answer: 5.34 µM

Question: And the TGI [7]?
Answer: 23.7 µM

Question: And the GI50 [8]?
Answer: 2.3 µM

Question: And the TGI [8]?
Answer: 16.8 µM

Question: And the GI50 [9]?
Answer: 3.19 µM

Question: What about the TGI [9] of the same molecule?
Answer: 18.8 µM

Question: What about the GI50 [10] of the same molecule?
Answer: 9.47 µM

Question: What about the TGI [10] of the same molecule?
Answer: 23.7 µM

Question: And the GI50 [11]?
Answer: 11.6 µM

Question: And the TGI [11]?
Answer: 23.8 µM

Question: What about the GI50 [12] of the same molecule?
Answer: 8.67 µM

Question: And the TGI [12]?
Answer: 33.1 µM

Question: And the GI50 [13]?
Answer: 11.1 µM

Question: What about the TGI [13] of the same molecule?
Answer: 24.1 µM

Question: And the GI50 [14]?
Answer: 3.91 µM

Question: What about the TGI [14] of the same molecule?
Answer: 21.1 µM

Question: And the GI50 [15]?
Answer: 3.41 µM

Question: And the TGI [15]?
Answer: 26.3 µM

Question: And the GI50 [16]?
Answer: 13.3 µM

Question: What about the TGI [16] of the same molecule?
Answer: 28.5 µM

Question: What about the GI50 [17] of the same molecule?
Answer: 4.04 µM

Question: And the TGI [17]?
Answer: 14.6 µM

Question: And the GI50 [18]?
Answer: 3.29 µM

Question: And the TGI [18]?
Answer: 28.4 µM

Question: What about the GI50 [19] of the same molecule?
Answer: 4.36 µM

Question: What about the TGI [19] of the same molecule?
Answer: 18.5 µM

Question: What about the GI50 [20] of the same molecule?
Answer: 12.3 µM

Question: And the TGI [20]?
Answer: 29.5 µM

Question: What about the GI50 [21] of the same molecule?
Answer: 6.75 µM

Question: What about the TGI [21] of the same molecule?
Answer: 23 µM

Question: And the GI50 [22]?
Answer: 13.1 µM

Question: What about the TGI [22] of the same molecule?
Answer: 27.1 µM

Question: And the GI50 [23]?
Answer: 10.6 µM

Question: And the TGI [23]?
Answer: 25.5 µM

Question: What about the GI50 [24] of the same molecule?
Answer: 11.7 µM

Question: And the TGI [24]?
Answer: 24.8 µM

Question: And the GI50 [25]?
Answer: 14.2 µM

Question: What about the TGI [25] of the same molecule?
Answer: 29 µM

Question: And the GI50 [26]?
Answer: 10.8 µM

Question: And the TGI [26]?
Answer: 25.8 µM

Question: What about the GI50 [27] of the same molecule?
Answer: 7.46 µM

Question: And the TGI [27]?
Answer: 26.5 µM

Question: What about the GI50 [28] of the same molecule?
Answer: 12.1 µM

Question: And the TGI [28]?
Answer: 26 µM

Question: What about the GI50 [29] of the same molecule?
Answer: 10.6 µM

Question: And the TGI [29]?
Answer: 28.7 µM

Question: And the GI50 [30]?
Answer: 1.04 µM

Question: And the TGI [30]?
Answer: 16.7 µM

Question: What about the GI50 [31] of the same molecule?
Answer: 5.57 µM

Question: And the TGI [31]?
Answer: 21.4 µM

Question: What about the GI50 [32] of the same molecule?
Answer: 10.3 µM

Question: And the TGI [32]?
Answer: 23.9 µM

Question: And the GI50 [33]?
Answer: 12.6 µM

Question: And the TGI [33]?
Answer: > 63 µM

Question: What about the GI50 [34] of the same molecule?
Answer: 10.8 µM

Question: And the TGI [34]?
Answer: 25.2 µM

Question: What about the GI50 [35] of the same molecule?
Answer: 10.6 µM

Question: What about the TGI [35] of the same molecule?
Answer: 23.5 µM

Question: And the GI50 [36]?
Answer: 4.08 µM

Question: And the TGI [36]?
Answer: 18.1 µM

Question: And the GI50 [37]?
Answer: 11.2 µM

Question: What about the TGI [37] of the same molecule?
Answer: 23.9 µM

Question: What about the GI50 [38] of the same molecule?
Answer: 7.7 µM

Question: And the TGI [38]?
Answer: 36.9 µM

Question: What about the GI50 [39] of the same molecule?
Answer: 9.75 µM

Question: And the TGI [39]?
Answer: 25.9 µM

Question: What about the GI50 [40] of the same molecule?
Answer: 13.7 µM

Question: What about the TGI [40] of the same molecule?
Answer: 73 µM

Question: And the GI50 [41]?
Answer: 4.56 µM

Question: What about the TGI [41] of the same molecule?
Answer: 18.9 µM

Question: And the GI50 [42]?
Answer: 8.38 µM

Question: What about the TGI [42] of the same molecule?
Answer: 28.7 µM

Question: And the GI50 [43]?
Answer: 11 µM

Question: And the TGI [43]?
Answer: 23 µM

Question: What about the GI50 [44] of the same molecule?
Answer: 8.5 µM

Question: And the TGI [44]?
Answer: 23.8 µM

Question: What about the GI50 [45] of the same molecule?
Answer: 10.5 µM

Question: And the TGI [45]?
Answer: 47.9 µM

Question: And the GI50 [46]?
Answer: 2.14 µM

Question: And the TGI [46]?
Answer: 18.2 µM

Question: And the GI50 [47]?
Answer: 13.3 µM

Question: And the TGI [47]?
Answer: 40.4 µM

Question: And the GI50 [48]?
Answer: 11.4 µM

Question: What about the TGI [48] of the same molecule?
Answer: 24.7 µM

Question: What about the GI50 [49] of the same molecule?
Answer: 13.9 µM

Question: And the TGI [49]?
Answer: 31 µM

Question: What about the GI50 [50] of the same molecule?
Answer: 13.7 µM

Question: What about the TGI [50] of the same molecule?
Answer: 29.3 µM

Question: What about the GI50 [51] of the same molecule?
Answer: 13.6 µM

Question: What about the TGI [51] of the same molecule?
Answer: 30.1 µM

Question: What about the GI50 [52] of the same molecule?
Answer: 11.2 µM

Question: And the TGI [52]?
Answer: 24.1 µM

Question: What about the GI50 [53] of the same molecule?
Answer: 4.52 µM

Question: What about the TGI [53] of the same molecule?
Answer: 19.3 µM

Question: And the GI50 [54]?
Answer: 12.8 µM

Question: And the TGI [54]?
Answer: 27.5 µM

Question: What about the GI50 [55] of the same molecule?
Answer: 3.73 µM

Question: And the TGI [55]?
Answer: > 72.8 µM

Question: What about the GI50 [56] of the same molecule?
Answer: 12.2 µM

Question: And the TGI [56]?
Answer: 35.9 µM

Question: And the GI50 [57]?
Answer: 12.6 µM

Question: And the TGI [57]?
Answer: > 62.5 µM

Question: And the GI50 [58]?
Answer: 10.1 µM

Question: And the TGI [58]?
Answer: 23.2 µM
